The record followed here is patent publication US9029092B2, “Solution phase homogeneous assays” (Beckman Coulter, Inc., priority 2009, dated 2015).

SMILES strings stand for the structures.

The assay relates to biotinylated HRP. Kind of assay: Model system for selection of SSIA (AK1/streptavidin BSA microparticles + biotinylated HRP). The conditions noted are these: SSIA 100 μM final; for light intensity, BTN-HRP0: Btn-HRP 0 ng/mL; for light intensity, BTN-HRP0 / light intensity, BTN-HRP1 / light intensity, BTN-HRP10 / light intensity, BTN-HRP100 / light intensity, BTN-HRP250: total HRP 500 ng/mL; for S1/S0: Btn-HRP 1 ng/mL vs 0; for light intensity, BTN-HRP1: Btn-HRP 1 ng/mL; for S2/S0: Btn-HRP 10 ng/mL vs 0; for light intensity, BTN-HRP10: Btn-HRP 10 ng/mL; for S3/S0: Btn-HRP 100 ng/mL vs 0; for light intensity, BTN-HRP100: Btn-HRP 100 ng/mL; for S4/S0: Btn-HRP 250 ng/mL vs 0; for light intensity, BTN-HRP250: Btn-HRP 250 ng/mL. It counts as biochemical, horseradish. How it is done: The model system uses a microparticle conjugated to BSA (bovine serum albumin) labeled with a […] and acridan ketenedithioacetal chemiluminescent label (AK1) as the chemiluminescent-labeled sbp, and biotinylated HRP as the activator-labeled specific binding pair. In the model system, varying amounts of Btn-HRP is added to the chemiluminescent-labeled specific binding pair at 0, 1, 10, 100 and 250 ng/mL. Additional unlabeled HRP is added to reach a total HRP of concentration of 500 ng/mL in each reaction mixture. The unlabeled HRP in combination with the activator-labeled sbp was provided to the chemiluminescent-labeled sbp microparticles to emulate sample. A compound for assessment as an SSIA was also added. This reaction mixture of the model system is then triggered by addition of trigger solution in a manner of assays of the present disclosure.
To prepare the chemiluminescent-labeled sbp on microparticles, Bovine Serum Albumin (BSA) was biotinylated with 4× molar excess of biotin-LC-sulfoNHS (Pierce Biotechnology Inc., Rockford, Ill., USA). Unbound reactants were removed via desalting or dialysis. The biotin-BSA was then reacted with a 5× molar excess of an NHS ester of acridan ketenedithioacetal AK1 in 20 mM sodium phosphate pH 7.2: DMSO 75:25, v/v) followed by desalting in the same buffer. The dual labeled (biotin and AK1) BSA was then coupled with tosyl activated M280 microparticles (Invitrogen Corporation, Carlsbad, Calif., USA) in a 0.1M borate buffer pH 9.5 at a concentration of about 20 μg of labeled BSA per mg of microparticles for 16-24 h at 40° C. After coupling the microparticles were stripped for 1 h at 40° C. with 0.2 M TRIS base, 2% SDS, pH˜11. The stripping process was repeated one additional time. Microparticles were then suspended in a 0.1% BSA/TRIS buffered saline (BSA/TBS) buffer and streptavidin (SA) was added at approximately 15 μg SA per mg microparticles. Streptavidin was mixed with the microparticles for 45-50 min at room temperature. The microparticles were then washed three times and suspended in the same BSA/TBS.
HRP, (Roche Diagnostics, Indianapolis, Ind., USA) was biotinylated with 4× molar excess of biotin-LC-sulfoNHS (Pierce Biotechnology Inc., Rockford, Ill., USA). Alternatively, 25× molar excess of biotin-PEO4-NHS may be used. Unbound reactants were removed via desalting or dialysis.
Each SSIA compound for assessment was solubilized in Buffer II at a concentration at least 10× of the working strength concentration.
25 μl of 1 mg/ml of dual-labeled (biotin and AK1) BSA M280 particles were mixed with 45 μl of working concentration SSIA in Buffer II. The assay volume brought to 85 μl by adding 15 μl of Buffer II. 15 μl of sample containing Btn-HRP:HRP at different ratios (The amount of biotinylated-HRP varied from 0, 1, 10, 100 and 250 ng/mL) was added. The reaction mixture was incubated for 30 min at 37° C., then 100 μL of trigger solution was added and the light intensity recorded. Total volume of reaction mixture, including trigger solution was 200 μL with a final concentration of 100 μM of SSIA.
The screening tests were performed using a modified DxI® Immunoassay System (Beckman Coulter, Inc. Brea, Calif.) as described above.

With `O=C(O)CCCC[C@@H]1CCSS1` (racemic) [Lipoic Acid], the “light intensity, BTN-HRP0” value is 35,016; the S1/S0 stood at 2; the “light intensity, BTN-HRP1” value was 71,751; the S2/S0 is given as 70.0. Moreover, the “light intensity, BTN-HRP10” value is 2,450,949; the S3/S0 came out at 246.9; the “light intensity, BTN-HRP100” value is on record as 8,647,037; the S4/S0 stood at 252.7. Moreover, the “light intensity, BTN-HRP250” value is on record as 8,847,921 and the “effectiveness as SSIA in the model system” value (from here on “effectiveness as SSIA”) is on record as “insuffient effectiveness”.

On to `Oc1ccc(O)c(Cl)c1` [2-chloro-1,4-dihydroxybenzene], for which the “light intensity, BTN-HRP0” value is 3,571; the S1/S0 came out at 1.1; the “light intensity, BTN-HRP1” value was 4,007; the S2/S0 is recorded as 52.9. In addition, the “light intensity, BTN-HRP10” value is reported as 188,920; the S3/S0 stood at 170.8; the “light intensity, BTN-HRP100” value was 610,053; the S4/S0 was 245.3. For the same compound, the “light intensity, BTN-HRP250” value is reported as 875,831.

Regarding `Nc1ccc(C(=O)O)cc1O` [4-Amino-3-hydroxy-benzoic acid], the “light intensity, BTN-HRP0” value stood at 972; the S1/S0 came to 2.9; the “light intensity, BTN-HRP1” value was 2,808; the S2/S0 is given as 454.2. Also, the “light intensity, BTN-HRP10” value is on record as 441,455; the S3/S0 is recorded as 6076.7; the “light intensity, BTN-HRP100” value is recorded as 5,906,521; the S4/S0 is on record as 6587.9. Besides, the “light intensity, BTN-HRP250” value is listed as 6,403,425 and the “effectiveness as SSIA” value was “demonstrating utility as SSIA”.

Regarding `Cl.Nc1ccc(O)cc1O` [4-aminoresorcinol hydrochloride], the “light intensity, BTN-HRP0” value is listed as 675; the S1/S0 stood at 1.7; the “light intensity, BTN-HRP1” value is recorded as 1,163; the S2/S0 is reported as 110.8. The “light intensity, BTN-HRP10” value was 74,764; the S3/S0 is given as 489.0; the “light intensity, BTN-HRP100” value was 330,056; the S4/S0 was determined as 384.5. The “light intensity, BTN-HRP250” value was 259,541.

Take `Oc1ccc(Cl)cc1O` [4-chloro catechol, 4-chlorocatechol]: the “light intensity, BTN-HRP0” value worked out at 93; the S1/S0 turned out to be 2.2; the “light intensity, BTN-HRP1” value amounted to 205; the S2/S0 was determined as 14.8. The “light intensity, BTN-HRP10” value is listed as 1,373; the S3/S0 is on record as 4910.8; the “light intensity, BTN-HRP100” value is 456,707; the S4/S0 is recorded as 13558.5. Further, the “light intensity, BTN-HRP250” value was 1,260,937 and the “effectiveness as SSIA” value is “demonstrating utility as SSIA”.

`CC1(C)OC[C@@H]([C@H]2OC(=O)C(O)=C2O)O1` [5,6iso-propyliene ascorbic acid]: the “light intensity, BTN-HRP0” value is 264; the S1/S0 is 3.6; the “light intensity, BTN-HRP1” value was determined as 961; the S2/S0 is listed as 112.3. The “light intensity, BTN-HRP10” value is on record as 29,645; the S3/S0 came out at 18626.9; the “light intensity, BTN-HRP100” value was 4,917,499; the S4/S0 turned out to be 33275. Besides, the “light intensity, BTN-HRP250” value is recorded as 8,784,595 and the “effectiveness as SSIA” value was “demonstrating utility as SSIA”.

With `Cc1c(O)cc2c(c1C)O[C@](C)(CCC[C@H](C)CCC[C@H](C)CCCC(C)C)CC2` [(+)-gamma-Tocopherol], the “light intensity, BTN-HRP0” value was 6,051; the S1/S0 stood at 1.8; the “light intensity, BTN-HRP1” value was 10,924; the S2/S0 stood at 278.7. Also, the “light intensity, BTN-HRP10” value was 1,686,079; the S3/S0 stood at 1437.5; the “light intensity, BTN-HRP100” value is 8,698,069; the S4/S0 was 1699.4. For the same compound, the “light intensity, BTN-HRP250” value is on record as 10,282,504.

In the case of `CCCCCCCCCCCCCCCC(=O)OC[C@H](O)[C@H]1OC(=O)C(O)=C1O` [Ascorbic Acid 6-palmitate], the “light intensity, BTN-HRP0” value is on record as 81; the S1/S0 came out at 4; the “light intensity, BTN-HRP1” value was found to be 327; the S2/S0 turned out to be 502.4. Also, the “light intensity, BTN-HRP10” value was 40,863; the S3/S0 is reported as 100662.3; the “light intensity, BTN-HRP100” value is listed as 8,187,204; the S4/S0 turned out to be 125193.6. For the same compound, the “light intensity, BTN-HRP250” value is 10,182,411 and the “effectiveness as SSIA” value is “demonstrating utility as SSIA”.

`N[C@@H](CS)C(=O)O` [Cysteine]: the “light intensity, BTN-HRP0” value is 35,695; the S1/S0 came out at 1.6; the “light intensity, BTN-HRP1” value is 58,203; the S2/S0 was determined as 69.6. Besides, the “light intensity, BTN-HRP10” value is on record as 2,483,411; the S3/S0 is 256.3; the “light intensity, BTN-HRP100” value is on record as 9,147,371; the S4/S0 is given as 285.5. In addition, the “light intensity, BTN-HRP250” value is given as 10,190,505 and the “effectiveness as SSIA” value was “insuffient effectiveness”.

On to `COc1cc(/C=C/C(=O)O)ccc1O` [Ferulic acid], for which the “light intensity, BTN-HRP0” value is 5,252; the S1/S0 was 2.3; the “light intensity, BTN-HRP1” value was 12,079; the S2/S0 is given as 136.2. Moreover, the “light intensity, BTN-HRP10” value was 715,313; the S3/S0 was 1672.9; the “light intensity, BTN-HRP100” value was 8,785,865; the S4/S0 is given as 1950.5. Further, the “light intensity, BTN-HRP250” value is 10,244,269.

Regarding `COc1ccc2[nH]cc(CCNC(C)=O)c2c1` [Melatonin], the “light intensity, BTN-HRP0” value is given as 54,528; the S1/S0 was determined as 1.3; the “light intensity, BTN-HRP1” value is given as 70,741; the S2/S0 is recorded as 43.7. In addition, the “light intensity, BTN-HRP10” value was 2,381,361; the S3/S0 stood at 173.7; the “light intensity, BTN-HRP100” value was 9,471,431; the S4/S0 worked out at 190.2. Besides, the “light intensity, BTN-HRP250” value was 10,370,061 and the “effectiveness as SSIA” value is on record as “insuffient effectiveness”.

For the compound `CC(=O)N[C@@H](CS)C(=O)O` [N-Ac-Cysteine, N-acetyl cysteine], the “light intensity, BTN-HRP0” value is 43,647; the S1/S0 came out at 1.1; the “light intensity, BTN-HRP1” value was 47,636; the S2/S0 is reported as 40.3. Moreover, the “light intensity, BTN-HRP10” value is given as 1,757,607; the S3/S0 is given as 199; the “light intensity, BTN-HRP100” value is on record as 8,685,795; the S4/S0 came out at 234.2. In addition, the “light intensity, BTN-HRP250” value is recorded as 10,219,869 and the “effectiveness as SSIA” value is on record as “insuffient effectiveness”.

As for `O=C(O)c1cccnc1` [Nicotinic Acid], the “light intensity, BTN-HRP0” value is 34,369; the “light intensity, BTN-HRP1” value is on record as 53,765; the “light intensity, BTN-HRP10” value is recorded as 2,228,317; the “light intensity, BTN-HRP100” value is on record as 8,772,523. Besides, the “light intensity, BTN-HRP250” value is on record as 9,224,439 and the “effectiveness as SSIA” value is reported as “insuffient effectiveness”.
